Here are results for 9 compounds from patent US20110124569A1, “MACROCYCLIC COMPOUNDS, PROTEASE INHIBITION, AND METHODS OF TREATMENT” (priority 2007, published 2011).

For assay [1], the target named is T1, α-chymotrypsin (bovine pancreas) (Bos taurus, UniProt P00766).
T1 construct: purchased Sigma C4129
The assay is described as follows: α-Chymotrypsin inhibition assay. Format: biochemical. The settings on record: substrate concentration near Km (0.75 mM N-succinyl-Gly-Gly-Phe-p-nitroanilide). As for the experimental part: (§1) The test samples for 1-6 were prepared in DMSO by (log/2)-fold dilutions ranging from 1 mM to 100 pM. All assays were performed in triplicate. Phenylmethylsulfonyl fluoride (PMSF) was used as a positive control in the enzyme assays.
(§2) Inhibitory activity against α-chymotrypsin (bovine pancreas; Sigma, C4129) was determined as follows. A 1-mg/mL solution of chymotrypsin was prepared in assay buffer (50 mM Tris-HCl/100 mM NaCl/1 mM CaCl2, pH 7.8). […] The increase in absorbance was measured for 30 min at intervals of 5 min at 405 nm.

In assay [2] the target is T2, porcine pancreatic elastase (Sus scrofa, UniProt P00772).
T2 construct: purchased EPC EC134
Put plainly: Porcine pancreatic elastase inhibition assay. Type of assay: biochemical. The settings on record: for IC50: substrate concentration near Km (1.5 mM N-succinyl-Ala-Ala-Ala-p-nitroanilide), read-out: Porcine pancreatic elastase inhibitory activity IC50. On the procedure: as §1
To test the inhibition of porcine pancreatic elastase (Elastase-high purity; EPC, EC134), 75 μg/mL solution of elastase was prepared using Tris-HCl (pH 8.0). […] After preincubation of 165 μL of Tris-HCl (pH 8.0), 10 μL of elastase solution, and 10 μL of test samples in DMSO (5% final concentration) in a microtiter plate at 30° C. for 20 min, 15 μL of substrate solution (1.5 mM final concentration) was added to the mixture. The increase in absorbance was measured for 30 min at intervals of 5 min at 405 nm. Competitive binding was determined by plotting enzyme activity against substrate concentrations in the presence of different inhibitor concentrations (Lineweaver-Burk plot).

The subject of assay [3] is HT29 colon adenocarcinoma cells. The assay is described as follows: MTT-based cell viability assessment. The note with it: highest concentration tested (50 μM). On the procedure: The effects of compounds 5 and 6 on the proliferation of cancer cells was also assessed.
In assay [4] the target is T3, trypsin from porcine pancreas (Sus scrofa, UniProt P00761).
T3 construct: purchased Sigma T0303
Put plainly: Trypsin inhibition assay. Type of assay: biochemical. As for the experimental part:
as §1, §2
Inhibitory activity against trypsin was assayed as described above for chymotrypsin, using trypsin from porcine pancreas (Sigma, T0303) and Nα-benzoyl-DL-arginine-4-nitroanilide hydrochloride as the substrate solution.

Assay [5] has as its system trypsin. The note with it: cited from earlier work.
In assay [6] the test system is chymotrypsin. The note with it: literature, Amp-containing compound; cited from earlier work.
Assay [7] concerns the target elastase (Sus scrofa, UniProt P00772). The settings on record: literature, cited from earlier work.

Values after ≈ are worked out from the molar mass of the structure shown. Like-named read-outs stand apart in the source and are kept apart here.

T2 sequence (P00772 27-266): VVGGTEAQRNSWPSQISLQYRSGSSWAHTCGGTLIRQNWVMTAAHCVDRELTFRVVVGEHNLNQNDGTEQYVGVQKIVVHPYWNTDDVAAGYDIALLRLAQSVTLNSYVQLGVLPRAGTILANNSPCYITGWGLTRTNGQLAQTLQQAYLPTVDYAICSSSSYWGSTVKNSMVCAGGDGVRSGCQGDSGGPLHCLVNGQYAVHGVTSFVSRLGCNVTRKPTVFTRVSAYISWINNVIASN
T3 sequence (P00761 9-231): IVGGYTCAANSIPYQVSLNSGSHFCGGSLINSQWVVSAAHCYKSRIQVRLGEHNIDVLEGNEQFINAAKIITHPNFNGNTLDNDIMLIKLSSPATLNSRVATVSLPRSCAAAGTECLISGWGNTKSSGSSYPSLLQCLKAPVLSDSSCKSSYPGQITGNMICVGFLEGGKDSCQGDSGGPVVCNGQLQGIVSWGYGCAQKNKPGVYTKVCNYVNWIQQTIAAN
Chain of elastase (P00772 27-266): as the sequence (P00772 27-266) above

The term IC50 denotes the point on the concentration scale where inhibition reaches its midpoint. As to `C/C=C1\NC(=O)C(NC(=O)C(CCc2ccc(O)cc2)NC(=O)C(C)NC(=O)C(O)CO)C(C)OC(=O)C(C(C)C)NC(=O)C(Cc2ccc(O)cc2)N(C)C(=O)C(Cc2ccccc2)N2C(=O)C(CCC2O)NC1=O` (stereo not shown) [Compound 1, Lyngbyastatin 5], the IC50 in assay [1] turned out to be 2.8 ± 0.3 µM; in assay [2], 0.0032 ± 0.002 µM.

Consider `C/C=C1\NC(=O)[C@@H](NC(=O)[C@H](CCc2ccc(O)cc2)NC(=O)[C@H](C)NC(=O)[C@H](O)COS(=O)(=O)O)[C@@H](C)OC(=O)[C@H](C(C)C)NC(=O)[C@H](Cc2ccc(O)cc2)N(C)C(=O)[C@H](Cc2ccccc2)N2C(=O)[C@H](CC[C@H]2OC)NC1=O` [Compound 2, Lyngbyastatin 6], for which the figures for the 50% inhibitory concentration (IC50) in assay [1] and in assay [2] were 2.5 ± 0.8 µM and 0.0033 ± 0.0008 µM, respectively. The like results for `C/C=C1\NC(=O)C(NC(=O)C(CCC(N)=O)NC(=O)CCC)C(C)OC(=O)C(C(C)C)NC(=O)C(Cc2ccc(O)cc2)N(C)C(=O)C(Cc2ccccc2)N2C(=O)C(CCC2O)NC1=O` (stereo not shown) [Compound 4, somamide B, reference compound] were, in that order, 4.2 ± 0.5 µM and 0.0095 ± 0.0052 µM. As to `CC(=O)N1CCC[C@H]1C(=O)N[C@H](C(=O)N[C@@H]1C(=O)N[C@@H](CC(C)C)C(=O)NC2CC[C@@H](O)N(C2=O)[C@@H](Cc2ccccc2)C(=O)N(C)C(Cc2ccc(O)cc2)C(=O)N[C@@H](C(C)C)C(=O)O[C@@H]1C)[C@@H](C)O` (stereo partly shown) [Compound 5, Kempopeptin A], in assay [3], the “effect on growth of HT29 cells” value is recorded as “did not significantly affect the growth”. The “elastase inhibition and selectivity over chymotrypsin” value in assay [2] is on record as “inhibited elastase with a slight selectivity over chymotrypsin”.

As to `CCCC(=O)N[C@H](C(=O)N[C@@H]1C(=O)N[C@@H](CCCCN)C(=O)N[C@H]2CC[C@@H](O)N(C2=O)[C@@H]([C@@H](C)CC)C(=O)N(C)[C@@H](Cc2ccc(OC)c(Br)c2)C(=O)N[C@@H](C(C)C)C(=O)O[C@@H]1C)C(C)C` [Compound 6, Kempopeptin B], the “trypsin inhibition, selectivity versus elastase and chymotrypsin” value in assay [4] was “selective in vitro trypsin inhibition”; in assay [4] (listed as kempopeptin B), “inhibited only trypsin activity”. Moreover, in assay [3], the “effect on growth of HT29 cells” value is listed as “did not significantly affect the growth”. Consider `C/C=C1\NC(=O)C(NC(=O)C(CCc2ccc(O)cc2)NC(=O)C(C)NC(=O)C(O)COS(=O)(=O)O)C(C)OC(=O)C(C(C)C)NC(=O)C(Cc2ccc(O)cc2)N(C)C(=O)C(Cc2ccccc2)N2C(=O)C(CCC2O)NC1=O` (stereo not shown) [lyngbyastatin 4], for which the “trypsin activity upon treatment, previous findings” value in assay [5] (previous publication (J. Nat. Prod. 2007, 70, 124-127)) is reported as “unaffected”. For the compound `CCCCCC(=O)N[C@@H](CC(=O)O)C(=O)N[C@@H]1C(=O)N[C@@H](CCCCN)C(=O)N[C@H]2CC[C@@H](O)N(C2=O)[C@@H]([C@@H](C)CC)C(=O)N(C)[C@@H](Cc2ccc(O)cc2)C(=O)N[C@@H](C(C)C)C(=O)O[C@@H]1C` [micropeptin SD944], in assay [5] (literature value), the IC50 against trypsin is 8.0 µg/mL (≈ 8.46 µM). As for oscillapeptin C, in assay [6], the chymotrypsin inhibition result is listed as “still inhibits chymotrypsin”. Moreover, the elastase inhibition result in assay [7] (Amp-containing compound) is recorded as “does not inhibit elastase”. In the case of planktopeptin BL843, the “protease-inhibitory activity compared with the other planktopeptins” value in assay [7] is “one order of magnitude lower”.
